Values of other authors in PMC3877923 (Journal of the American Chemical Society, 2013).
Marks after values point to notes of the source that are not given here.

SMILES: Cc1cc(C#N)cc(C)c1Oc1nc(Nc2ccc(C#N)cc2)nc(N)c1Br [etravirine]
- Aqueous solubility S: << 1 ^b µg/mL
